Assay results: patent US11987404B2, “Method for filling containers with a powder” (NTC S.R.L., priority 2019, dated 2024)

What was measured:
Type in all cases: physicochemical
[1] = Long term stability 25° C./60% RH in heat-sealed envelope; details: long-term stability in the climatic area II
Description: (§1) The stability of the mannitol in the form of powder object of the present invention was tested, housed inside a heat-sealed envelope in compostable material. 50 grams of said powder were stored for 6 months at 40° C./75% RH (Test 1) and for 6 months at 25° C./60% RH (Test 2). Checks were made of the parameters indicated in Tables 8 and 9 following the times T0-T6 identified as: T0=moment of insertion of the air-conditioned environment, T1=after one month from the moment T0, T2=after two months from the moment T0, T3=after three months from the time T0, T4=after four months from the time T0, T5=after five months from the time T0, T6=after six months from the time T0.

[2] = Bulk density (Ph. Eur. 2.2.42)
Description: As regards the bulk density outlined above, in particular the poured bulk density, such parameter is measured according to the European Pharmacopoeia reference standard (Ph. EUR.), current edition 2.2.42, in force at the priority date of this patent application. In the context of the present invention, the expression “bulk” implies that the powder density value is calculated in a manner formally analogous to an absolute density (such as for a solid body or for a liquid). However, since a powder has empty inter-particle spaces, the total volume occupied by the powder (i.e. its outer bulk), thus including the inter-particle spaces between the various particles, should be taken into account when evaluating bulk density. More precisely, according to the aforementioned standard, a 100 ml class A graduated flask is filled and brought to volume with the powder particles, after which the bulk density is calculated as the ratio between the weight of the powder inside the flask and the volume (100 ml) occupied by that weight of the powder particles. Mannitol powder is a poorly flowing powder, which has a certain tendency, just like all fine powders, to agglomerate under pressure. […]

[3] = Dissolution study of mannitol powder in non-carbonated commercial waters; details: 150 g of mannitol in 900 ml of water, weakly acidic or neutral pH
Description: The solubility of the mannitol powder was then studied in the following three types of non-carbonated commercial waters: • Sangemini: PH at source 6.2; • Antica Fonte Boario: PH at source 7.0; • Panna Toscana: pH at source 8.0.

[4] = Accelerated stability 40° C./75% RH in heat-sealed envelope; details: accelerated stability conditions
Description: as §1

Q: With `OC[C@@H](O)[C@@H](O)[C@H](O)[C@H](O)CO` [mannitol, Mannitol] as the molecule, how does the “measured parameters over the test” value [1] read?
A: remained stable

Q: And the transient density ([2]; after passing through 3 mm mesh of the sieve shaker, measured in the laboratory)?
A: about 0.73 g/ml

Q: What about the poured bulk density ([2]; coherent mass before the drum centrifugal sieve shaker) of the same molecule?
A: about 0.60 g/ml

Q: And the complete dissolution time [3]?
A: more than 6 minutes

Q: What about the “measured parameters over the test” value [4] of the same molecule?
A: remained stable
